The record followed here is patent US20250333782A1 (ILLUMINA, INC., priority 2022, published 2025).

Counter-ions that a name gives are not always drawn.

The subject of assay [1] is dsDNA (300 bp-500 bp long, containing 4 known caC sites per strand). Put plainly: caC detection of dsDNA by Illumina sequencing, one-step overnight incubation. The note with it: one-step protocol, 100 mM borane, pH 4.3, 40° C., 16 h; expected beta=1; FIG. 4. How it is done:
An aliquot of 2 M borane stock solution in DMF was added to a buffered solution containing calculated amount of dsDNA (300 bp-500 bp long, containing 4 known caC sites per strand), resulting in the final borane concentration of 100 mM and pH of 4.3 (0.5 M NaOAc). The reaction mixture (50 μL) was shaken at 40° C. for 16 h. Then, the samples were purified by 1.8×SPRI (pH adjusted with 1 M Tris buffer pH=9.0). The purified DNA was PCR-amplified using the NEB-Next Enzymatic Methyl-Seq kit's NEB-Next Q5U Master Mix along with IDT-ILMN NextEra UDI Index primers. Finally, 0.9×SPRI purification was performed. The DNA libraries were normalized to 2 nM and 20 pM sequenced on an Illumina NextSeq instrument. The sequencing data was analysed to extract the beta value, which reflects the percentage conversion of caC to T.
The boranes tested included 5-methylthiazole borane VM117, 3-aminopyridine borane (3 AP), 4-methylpyridine-borane (4MeP), 5-(methoxymethyl)-2,4-dimethyl-1,3-thiazole borane (VM293), and 4-hydroxymethylpyridine borane (4HMP). […] The percentage of caC sites were detected by Illumina sequencing.

The test system of assay [2] is human DNA NA12878 treated with human TET2 dioxygenase. As to the kind of experiment: caC detection by Illumina sequencing, two-step incubation. The following applies: borane 40 mM or 100 mM, pH 4.3, 40° C. 2.5 hours, quench alpha-ketoglutarate, then 40° C. 18 hours; FIG. 5. The protocol:
A sample of human DNA NA12878 was treated with human TET2 dioxygenase to oxidise mC to caC. The sample was purified by a 1.8×SPRI and resuspended in RSB buffer. 2 M stocks of the amine-boranes were prepared in DMF, then added to the DNA to a final concentration of 40 mM or 100 mM, along with pH 4.3 sodium acetate buffer to a final concentration of 0.5 M. For the one-step protocol, the samples were incubated at 40° C. for 18 hours and 750 rpm shaking. For the two-step protocol, the samples were incubated at 40° C. for 2.5 hours and 750 rpm shaking, then quenched with a 1 M solution of alpha-ketoglutarate at pH 4.3 (to a final concentration of 400 mM) and kept at 40° C. for 18 hours and 750 rpm shaking. After the incubation, all samples underwent a 1.8×SPRI purification after adding 1 M pH 9 TRIS to basify the pH. Libraries were then amplified via PCR using the NEB-Next Enzymatic Methyl-Seq kit's NEB-Next Q5U Master Mix along with NEBNext Multiplex Oligos for Illumina Index primers. A final 0.9×SPRI was performed, before libraries were normalized to 20 pM sequenced on an Illumina NovaSeq (2×151 cycles). The sequencing data was analysed to extract the beta value, which reflects the percentage conversion of 5mC or 5hmC to T.
The percentage caC sites were detected by Illumina sequencing.

For assay [3], the system named is 7mer oligodeoxyribonucleotide AT[5caC]GCTA. As to the kind of experiment: Reaction kinetics of caC reduction on 7mer, boranes with cationic moieties. The following applies: 50 μM 7mer, 10 mM borane, NaOAc pH 4.3, 25° C.; FIG. 7. How it is done: (§1) To 45 μL of an aqueous solution of 0.111 mM 5caCpG dimer (0.1 mM final concentration) or 55.6 μM 7mer oligodeoxyribonucleotide (50 μM final concentration, sequence: AT[5caC]GCTA) or 22.2 μM 20mer oligodeoxyribonucleotide (20 μM final concentration, sequence: TTTCAGCTC[5caC]GGTCACGCTC) in 556 mM NaOAc buffer (pH 4.3, 500 mM final concentration) were added 5 μL of a stock solution of the respective borane (100 mM in DMF, 10 mM final concentration) and the reaction was incubated at 25° C. after short vortexing. Aliquots of 8 μL were taken at set time points and were quenched immediately with 4 μL alpha-ketoglutarate monosodium salt (1.0 M in H2O) and analysed by RP-UHPLC for consumption of the caC moiety in the starting material and formation of the product DHU moiety.

Assay [4] has as its system 20mer oligodeoxyribonucleotide TTTCAGCTC[5caC]GGTCACGCTC
As to the kind of experiment: Reaction kinetics of caC reduction on 20mer, boranes with cationic moieties. The note with it: 20 μM 20mer, 10 mM borane, NaOAc pH 4.3, 25° C.; FIG. 7. The protocol:
as §1

Take `[BH3-][n+]1ccc(C)cc1`: in assay [1], the “beta value (percentage of caC sites detected by Illumina sequencing; conversion of caC to T)” value is given as ~1. For the same compound, the “beta values with two-step protocol compared with one-step protocol” value in assay [2] is “consistent with the value obtained with the one-step protocol”.
Regarding `[BH3-][n+]1cccc(N)c1` [3 AP, 3-aminopyridine borane], the “beta value (percentage of caC sites detected by Illumina sequencing; conversion of caC to T)” value in assay [1] is recorded as ~1.
`C[N+](C)(C)CC(=O)NCc1ccncc1` [4AMP-Bet, 4-(Betainamidomethyl)pyridine borane (OBt/PF6 salt)]: the “reaction kinetics of consumption of caC on the 7mer” value in assay [3] is “efficient reaction kinetics of consumption of caC”. The “reaction kinetics of consumption of caC on the 20mer” value in assay [4] is “efficient reaction kinetics of consumption of caC”.
For `[BH3-][n+]1ccc(CO)cc1` [4HMP, 4-Hydroxymethylpyridine borane], the “beta value (percentage of caC sites detected by Illumina sequencing; conversion of caC to T)” value in assay [1] is reported as ~1.
As for `B[n+]1csc(C)c1` [VM117, 5-methylthiazole borane], the “beta value (percentage of caC sites detected by Illumina sequencing; conversion of caC to T)” value in assay [1] is ~1. In addition, the “beta values with two-step protocol compared with one-step protocol” value in assay [2] is given as “consistent with the value obtained with the one-step protocol”.
For `B[n+]1c(C)sc(COC)c1C` [VM293, 5-(methoxymethyl)-2,4-dimethyl-1,3-thiazole borane], in assay [1], the “beta value (percentage of caC sites detected by Illumina sequencing; conversion of caC to T)” value is reported as ~1.
